Measured values taken from patent US20250340593A1, “METHOD AND COMPOSITION FOR TREATING NEURODEGENERATIVE DISORDER” (priority 2022, published 2025).
Residues, ends and D or L forms follow the SMILES beside them.

Assays:
[1] = target: T1, Aβo-VEGF interaction (recombinant human VEGF165) (Homo sapiens, UniProt P05067); assay: Competitive ELISA of Aβo binding to immobilized VEGF; settings: for inhibition of the binding of Aβo to VEGF: biotinylated Aβ42 oligomers 2.1 μM, peptide 10 nM to 100 μM
T1 construct: purchased Bachem
Procedure: Competitive ELISA experiments were performed to analyze the ability of the BP to impede AB42 oligomers binding to VEGF. For these assays, recombinant human VEGF165 (500 ng/ml-1) was immobilized in the 96-well microplate as the capture antigen and incubated overnight at 4° C. The following day, biotinylated AB42 oligomers were precubated at 2.1 μM for 1 h at RT with various concentrations of the CP or BP ranging from 10 nM to 100 μM. After 3 rinces with PBS 0.05% Tween 20, the mix was added in triplicate and incubated for 2 h at RT. Next, a washing step was performed followed by an incubation with the HRP-conjugated streptavidin for 20 min, additional rinces and finally the substrate solution containing TMB and H2O2. Absorbance was measured using a TECAN microplate reader.

Aβ42 oligomers (Aβo) = target: T2, Aβ42 oligomers (Aβo) (Homo sapiens, UniProt P05067); assay: Indirect ELISA, binding of coated peptide to biotinylated Aβ42 oligomers; settings: peptide coated at 5 μM
T2 construct: purchased Bachem; host or cells: chemical synthesis
Procedure: (§1) The binding of the CP or BP to synthetic biotinylated Aβ42 oligomers (Aβo) or AB40 monomers (Aβm) was determined by indirect ELISA in which the CP or BP were used as the capture antigens and the biotin tag of the biotinylated Aβ peptides for the detection. 96-well clear polystyrene microplate (BioTechne DY990) were coated overnight at 4° C. with 5 μM of the CP or BP in PBS, pH 7.4. After immobilization, the plate was washed three times with PBS 0.05% Tween 20 and various concentrations of biotinylated Aβ peptides were added in triplicate from 0.1 μg.mL-1 to 10 μg.mL-1 (21 nM to 2.1 μM for Aβo (42), 22 nM to 2.2 μM for Aβm (40) and incubated for 2 h at RT. After additional washes with PBS 0.05% Tween 20, HRP-conjugated streptavidin (1/40) was added for 20 min at RT, followed by a washing step and an incubation in substrate solution containing 3,3′,5,5′-Tetramethylbenzidine (TMB) and H2O2. The reaction was stopped by H2SO4. Absorbance was successively measured at 450 and 540 nm with a TECAN microplate reader and optical density values at 540 nm were subtracted from the ones at 450 nm to correct for optical imperfections of the plate. Unspecific Aβ binding to the microplate was determined using non-coated wells.

AB40 monomers (Aβm) = target: T3, AB40 monomers (Aβm) (Homo sapiens, UniProt P05067); assay: Indirect ELISA, binding of coated peptide to biotinylated Aβ40 monomers
T3 construct: synthetic biotinylated Aβ42 oligomers (Aβo) or AB40 monomers (Aβm); purchased Bachem; host or cells: chemical synthesis
Procedure: as §1

Aβ preparation (30 μM) = target: T4, Aβ preparation (30 μM) (Homo sapiens, UniProt P05067); assay: Transmission electron microscopy of Aβ aggregates; settings: for morphology of Aβ aggregates by TEM: Aβ 30 μM with equimolar peptide, 24 h
T4 construct: purchased Bachem; host or cells: chemical synthesis
Procedure: Prior to imaging, 10 μL of an Aβ preparation (30 μM) aggregated for 24 h at 37° C. in the presence or absence of equimolar concentration of the CP or BP were deposited onto Formvar-C coated mesh nickel grids. After a 10 min incubation step at RT, grids were rinsed with sterile dH20. Samples were subsequently stained using 5% uranyl acetate for 1 minute in the dark to increase contrast and were allowed to air dry for 2 minutes. Finally, they were visualized with a JEM 1400 Transmission Electron Microscope (Jcol Tokyo, Japan), operating at 120 kV, initially imaged at low magnification (20,000X), and thereafter at 120,000X using a Gatan Orius 1000 digital micrograph software.

[2] = test system: hippocampal slices from 8-month-old WT and APP/PS1 mice; assay: LTP field potential recordings in acute hippocampal slices; set-up: species or system mouse; settings: for LTP amplitude computed as fEPSP slope 50 to 60 min after TBS / effect on LTP responses in WT slices: peptide 500 nM for 40 min before TBS
Procedure: Animals specimens Embryonic day 17-18 (E17-18) C57BI/6JRj wild-type male and female mice were used for primary hippocampal cell cultures. Electrophysiological field potential recording experiments were performed on 8-month-old wild type and transgenic heterozygous male APP/PS1-21 mice generated on a C57Bl/6 background and expressing a transgene combining human APP with the Swedish mutation (APPKM670/671NL) and mutated L166P human presenilin 1 (PS1) under the Thyl promoter (Radde et al, 2006). Wild type and APP/PSI mice were generated as described previously (Radde et al, 2006) and genotyping was carried out to reveal the presence or absence of APP and PSI transgenes. The study was conducted in accordance with the European Community Council directive 2010/63/EU on the protection of animals used for experimental and scientific purposes. Animal care and treatment procedures were realized according to the guidelines approved by the French Ethical Committee of the Lyon 1 University (DR2013-47).
Local field potential recordings (LFP) were performed on acute coronal hippocampal slices from 8-month-old wild type and transgenic heterozygous male APP/PS1-21 mice to measure baseline synaptic response and long-term potentiation (LTP) of Schaffer collaterals to CAI pyramidal cell synapses. Hippocampal slices (400 μm thick) were cut using a vibratome (Leica VT1200S) and incubated at room temperature in artificial cerebrospinal fluid (ACSF) containing (in mM): 124 NaCl, 10 glucose, 1.25 NaH2PO4, 2.5 KCl, 26 NaHCO3, 1.3 MgCl2, and 2.5 CaCl2, bubbled with 95% 02 and 5% CO2, pH 7.4) for 1 h prior to recording. Field excitatory postsynaptic potentials (fEPSPs) were recorded extracellularly in stratum radiatum of CAI region of the dorsal hippocampus in presence of gammaaminobutyric acid (GABA)-A receptor antagonist picrotoxin (100 μM). Electrical stimulation was realized with a bipolar tungsten electrode placed in CAI stratum radiatum and fEPSPs were measured using borosilicate glass microelectrodes (˜1-3 M (2) filled with ACSF. The tip of the recording electrode was located close to the slice surface. LFP were amplified and low-pass filtered at 3 kHz using a differential amplifier (X1000, WPI) and data acquisition and analyses were carried out using a National Instrument interface coupled with Elphy software (G. Sadoc, CNRS, France). LFP were sampled at 10 kHz and fEPSPs initial slope was computed to quantify synaptic responses. After baseline recordings of synaptic activity evoked at 0.2 Hz for at least 10 minutes, slices were incubated in ACSF or treated with the CP or BP at 500 nM for 40 min before inducing LTP with the theta burst stimulation (TBS). The effects of the peptides on synaptic responses were tested in a series of pilot experiments on mice of both genotypes. […] TBS consisted of 10 trains separated by 30 s, each train composed of 6 bursts at 5 Hz and each burst providing 4 pulses at 100 Hz. Before LTP induction, precautions were taken to ensure that approximately the same amplitude of fEPSPs was obtained in baseline for the different experiments to achieve the same level of cooperativity in each group. After LTP induction, fEPSPs were recorded for at least 60 min.

T1 sequence (P05067 672-713 limits assumed): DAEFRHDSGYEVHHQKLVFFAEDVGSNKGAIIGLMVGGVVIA
T4 sequence (P05067 672-713 limits assumed): as above
T3 sequence (P05067 672-711 limits assumed): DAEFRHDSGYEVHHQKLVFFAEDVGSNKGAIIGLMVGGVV
T2 sequence (P05067 672-713 limits assumed): as the sequence (P05067 672-713 limits assumed) above

CC(C)[C@H](NC(=O)[C@H](Cc1ccc(O)cc1)NC(=O)[C@@H](NC(=O)[C@H](CO)NC(=O)[C@H](Cc1c[nH]c2ccccc12)NC(=O)[C@H](CO)NC(=O)[C@H](CCCCN)NC(=O)[C@H](Cc1ccc(O)cc1)NC(=O)[C@H](CCCNC(=N)N)NC(=O)[C@H](CO)NC(=O)[C@H](CCCCN)NC(=O)[C@H](CCCCN)NC(=O)[C@H](CCCNC(=N)N)NC(=O)[C@@H](N)CCCCN)C(C)C)C(=O)NCC(=O)O [BP, KRKKSRYKSWSVYVG] (H-KRKKSRYKSWSVYVG-OH; N-terminus and C-terminus assumed)
Ki [1]: 0.34 µM | inhibition of the binding of Aβo to VEGF [1]: clear dose-dependent reduction | Kd (Aβ42 oligomers (Aβo); ELISA titration binding curves): 0.012 µM | Kd (AB40 monomers (Aβm)): 19 µM | morphology of Aβ aggregates by TEM (Aβ preparation (30 μM)): mainly non-fibrillar and amorphous in shape | self-assembly structures of peptide alone by TEM (Aβ preparation (30 μM)): does not induce any 3-dimensional self-assembly structures | change in baseline synaptic responses before LTP induction ([2]; 500 nM, during the 40 min prior to LTP induction, mice of both genotypes): did not induce a change | LTP amplitude computed as fEPSP slope 50 to 60 min after TBS ([2]; APP/PS1 slices): 226.7±40.5% | effect on LTP responses in WT slices ([2]; WT slices): does not alter LTP responses

NDYKDDDDKGAAA [CP, reference compound]
inhibition of the binding of Aβo to VEGF [1]: did not inhibit | binding to Aβo (Aβ42 oligomers (Aβo); ELISA): fails to bind | binding to Aβm (AB40 monomers (Aβm); ELISA, peptide coated at 5 μM): fails to bind | morphology of Aβ aggregates by TEM (Aβ preparation (30 μM)): characteristic twisted morphology | self-assembly structures of peptide alone by TEM (Aβ preparation (30 μM)): does not induce any 3-dimensional self-assembly structures | LTP amplitude computed as fEPSP slope 50 to 60 min after TBS ([2]; APP/PS1 slices): 119.8±9.1% | LTP amplitude computed as fEPSP slope 50 to 60 min after TBS ([2]; WT slices): 191.4±18.3% | effect on LTP responses in WT slices ([2]; WT slices): does not alter LTP responses
